Laboratory results taken from publication PMC5564600 (Oncotarget, 2017).
Read-outs that look alike come from different tables or passages of the source.

Assays:
Experiment in all cases: biochemical
Type in all cases: binding
panel of 442 kinases [1] = target: T1, panel of 442 kinases (Homo sapiens, UniProt P00519, H396P); details: for remaining activity at 1 µM: read-out: % of control at 1 µM; for remaining activity at 10 µM: read-out: % of control at 10 µM
T1 construct: purchased Ambit Biosciences (scanMAXX KINOMEscan)

panel of 442 kinases [2] = target: T2, panel of 442 kinases (Homo sapiens, UniProt P36888, K663Q); details: FLT3(K663Q); for remaining activity at 1 µM: read-out: % of control at 1 µM
T2 construct: purchased Ambit Biosciences (scanMAXX KINOMEscan)
T2 sequence (P36888 27-993 K663Q): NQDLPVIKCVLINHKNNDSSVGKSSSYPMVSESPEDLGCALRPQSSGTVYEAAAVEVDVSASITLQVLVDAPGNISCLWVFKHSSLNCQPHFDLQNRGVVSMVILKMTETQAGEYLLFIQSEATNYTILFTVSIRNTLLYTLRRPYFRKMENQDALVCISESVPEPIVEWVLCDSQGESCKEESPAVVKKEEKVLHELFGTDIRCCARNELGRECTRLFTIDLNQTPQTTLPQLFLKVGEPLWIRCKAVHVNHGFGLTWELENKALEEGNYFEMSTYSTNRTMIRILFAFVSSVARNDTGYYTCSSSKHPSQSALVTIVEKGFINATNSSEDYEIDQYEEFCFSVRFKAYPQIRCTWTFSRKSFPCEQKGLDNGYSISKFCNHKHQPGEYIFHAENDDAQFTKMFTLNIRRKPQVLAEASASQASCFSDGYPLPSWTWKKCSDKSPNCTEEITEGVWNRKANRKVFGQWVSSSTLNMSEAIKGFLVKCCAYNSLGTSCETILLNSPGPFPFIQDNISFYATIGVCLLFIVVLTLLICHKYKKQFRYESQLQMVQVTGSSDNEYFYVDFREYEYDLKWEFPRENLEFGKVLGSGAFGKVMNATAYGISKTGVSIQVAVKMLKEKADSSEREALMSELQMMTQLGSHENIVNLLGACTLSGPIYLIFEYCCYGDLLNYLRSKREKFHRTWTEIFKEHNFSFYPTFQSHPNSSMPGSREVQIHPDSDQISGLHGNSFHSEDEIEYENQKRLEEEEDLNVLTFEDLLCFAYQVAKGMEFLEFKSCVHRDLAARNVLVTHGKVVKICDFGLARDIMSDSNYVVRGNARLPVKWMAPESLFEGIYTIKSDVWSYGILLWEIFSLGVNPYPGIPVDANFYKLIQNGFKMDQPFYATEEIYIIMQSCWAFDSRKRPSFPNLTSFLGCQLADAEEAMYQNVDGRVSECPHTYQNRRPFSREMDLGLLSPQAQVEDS

panel of 442 kinases [3] = target: T3, panel of 442 kinases (Homo sapiens, UniProt P42681); details: kinase TXK; for remaining activity at 1 µM: read-out: TXK (% of control at 1 µM)
T3 construct: purchased Ambit Biosciences (scanMAXX KINOMEscan)
T3 sequence (P42681 1-527): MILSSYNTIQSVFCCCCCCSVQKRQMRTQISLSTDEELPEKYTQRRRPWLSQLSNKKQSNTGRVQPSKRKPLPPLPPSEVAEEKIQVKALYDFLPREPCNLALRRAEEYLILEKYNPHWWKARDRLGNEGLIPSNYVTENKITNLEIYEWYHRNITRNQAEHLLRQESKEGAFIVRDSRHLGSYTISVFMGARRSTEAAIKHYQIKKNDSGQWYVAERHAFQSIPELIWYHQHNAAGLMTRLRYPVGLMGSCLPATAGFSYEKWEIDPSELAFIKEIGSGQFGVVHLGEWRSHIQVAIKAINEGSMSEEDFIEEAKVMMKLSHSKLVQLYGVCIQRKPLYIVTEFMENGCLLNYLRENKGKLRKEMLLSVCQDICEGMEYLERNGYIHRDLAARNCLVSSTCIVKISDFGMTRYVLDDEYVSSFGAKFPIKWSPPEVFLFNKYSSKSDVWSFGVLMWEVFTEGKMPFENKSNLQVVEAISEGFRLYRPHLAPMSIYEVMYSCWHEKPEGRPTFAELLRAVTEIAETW

panel of 442 kinases [4] = target: T4, panel of 442 kinases (Homo sapiens, UniProt Q8TD08); details: ERK8; for remaining activity at 1 µM: read-out: % of control at 1 µM
T4 construct: purchased Ambit Biosciences (scanMAXX KINOMEscan)
T4 sequence (Q8TD08 1-544): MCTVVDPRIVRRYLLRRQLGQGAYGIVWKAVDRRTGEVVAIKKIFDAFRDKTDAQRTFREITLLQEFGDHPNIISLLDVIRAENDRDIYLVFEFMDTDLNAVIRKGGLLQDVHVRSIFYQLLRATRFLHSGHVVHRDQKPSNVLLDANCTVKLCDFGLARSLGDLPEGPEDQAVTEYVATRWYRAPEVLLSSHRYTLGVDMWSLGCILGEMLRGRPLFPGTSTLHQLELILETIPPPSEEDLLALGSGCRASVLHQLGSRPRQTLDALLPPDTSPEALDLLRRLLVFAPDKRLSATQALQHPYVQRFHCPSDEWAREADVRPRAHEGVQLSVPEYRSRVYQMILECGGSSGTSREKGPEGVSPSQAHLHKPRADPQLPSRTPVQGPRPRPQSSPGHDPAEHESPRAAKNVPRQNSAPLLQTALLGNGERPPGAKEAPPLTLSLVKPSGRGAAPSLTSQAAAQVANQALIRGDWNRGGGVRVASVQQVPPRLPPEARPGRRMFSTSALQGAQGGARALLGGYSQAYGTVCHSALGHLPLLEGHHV

[5] = 10 µM, read-out: % of control at 10 µM

Compound	remaining activity at 1 µM (panel of 442 kinases [1]; ABL1(H396P)-nonphosphorylated)	remaining activity at 10 µM (panel of 442 kinases [1]; ABL1(H396P)-nonphosphorylated)	remaining activity at 1 µM (panel of 442 kinases [1]; ABL1(H396P)-phosphorylated)	remaining activity at 10 µM (panel of 442 kinases [1]; ABL1(H396P)-phosphorylated)	remaining activity at 1 µM (panel of 442 kinases [2])	remaining activity at 10 µM (panel of 442 kinases [2]; [5])	remaining activity at 1 µM (panel of 442 kinases [3])	remaining activity at 10 µM (panel of 442 kinases [3]; 10 µM, read-out: TXK (% of control at 10 µM))	remaining activity at 1 µM (panel of 442 kinases [4])	remaining activity at 10 µM (panel of 442 kinases [4]; [5])
Nc1cc(C(F)(F)F)c(-c2cc(N3CCOCC3)nc(N3CCOCC3)n2)cn1 [Buparlisib]	99%	100%	96%	100%	95%	100%	98%	89%	100%	100%
Cn1c(=O)n(-c2ccc(C(C)(C)C#N)cc2)c2c3cc(-c4cnc5ccccc5c4)ccc3ncc21 [Dactolisib, 2-methyl-2-[4-(3-methyl-2-oxo-8-quinolin-3-yl-2,3-dihydroimidazo[4,5-c]quinolin-1-yl)-phenyl] propionitrile]	70%	–	79%	–	63%	–	100%	–	86%	–
COc1ncc(-c2ccc3nccc(-c4ccnnc4)c3c2)cc1NS(=O)(=O)c1ccc(F)cc1F [Omipalisib]	100%	–	100%	–	100%	–	82%	–	100%	–
FC(F)c1nc2ccccc2n1-c1nc(N2CCOCC2)nc(N2CCOCC2)n1 [ZSTK474, 2-(difluoromethyl)-1-[4,6-di(4-morpholinyl)-1,3,5-triazin-2-yl]-1H-benzimidazole]	100%	–	100%	–	100%	–	83%	–	100%	–
